Test results taken from patent publication US20030165580A1, “Safe pharmaceutical composition for treatment and prevention of gynecological disease” (priority 2002, published 2003).

Assays:
[1] = tested on: uterine peroxidase; assay: Uterine peroxidase activity (gene product of uterine) in cycloheximide-injured rats; type: in vivo, Sprague-Dawley rats; conditions: treatment group: cycloheximide + LIG, intraperitoneal injection, female rats; P < 0.001 vs control
Procedure: It is known that peroxidase induction is a useful market for estrogen-effected growth responses in uterine. The uterine peroxidase is a useful gene product for assessing effect of hormones on uterine. […] Female Sprague-Dawley rats at 20 days of age, allowed free access to food and water. Castrate rats were the same strain. Rats of normal group were administered in saline solution by intraperitoneal injection. Rats of control group were injected cycloheximide. Rats of treatment group injected cycloherimide+LIG. At the indicated times the rats were sacrificed by decapitation. The entire uterus from oviduct to cervix was removed, quickly dissected free of fat and connective tissue, blotted on hard filter paper, and weighed. Each uterus was minced with a scissors into a 12-ml polycarbonate tube and homogenized, 10 sec with ice cooling in 10 mM Tris.HCl, pH 7.2, buffer (25 mg of tissue per ml unless otherwise stated), with homogenizer. The homogenates were centrifuged for 45 min at 39,000×g at 2°. The hypotonic supernatant fraction contains no peroxidase activity. […] The reaction was started by the addition of enzyme (extract), and initial rates of guaiacol oxidation were determined from the increase in absorbance at 470 nm for the first minutes.

[2] = tested on: uterine tissues; assay: DNA synthesis of uterine (3H-TdR) in cycloheximide-injured rats; type: in vivo, Sprague-Dawley rats; conditions: treatment group: cycloheximide + LIG, female rats
Procedure: Female Sprague-Dawley rats at 20 days of age, allowed free access to food and water and, as immature rats, used by age 23 days. Castrate rats were the same strain. Rats of normal group were administered in saline solution by intraperitoneal injection. Rats of control group were injected cycloheximide. Rats of treatment group injected cycloherimide+LIG. At the indicated times the rats were sacrificed by decapitation. The entire uterus from oviduct to cervix was removed, quickly dissected free of fat and connective tissue, blotted on hard filter paper, and weighed. Each uterus was minced with a scissors into a 12-ml polycarbonate tube and homogenized, 10 sec with ice cooling in 10 mM Tris.HCl, pH 7.2, buffer (10 mg of tissue per ml unless otherwise stated), with homogenizer. Aliquets used for DNA analysis. Determination of DNA is used methods of ^3H-TdR.

[3] = tested on: uterine RNA; assay: Uterine RNA concentration; type: in vivo; conditions: treatment group; absorbance at 260 nm; P < 0.01 vs control
Procedure: Uterine samples (100 mg) were digested in a 4 M guanidium thiocyanate solution, to which was added 50 μl of 2 M sodium acetate (pH 4.0), 500 μl phenol, and finally 200 μl chloroform/isoamyl alcohol (24:1, v/v) sequentially, with mixing after each addition. The RNA from the resultant solution was pelleted by mixing with 1 vol. isopropanol and incubating at −20° C. for 2 h and spun at 12000×g for 12 min, then resuspended in 0.5% sodium dodecyl sulfate (SDS). The RNA suspension was incubated for 10 min at 65° C. and stored at −20° C. until use. RNA concentration was determined by absorbance intensity at 260 nm.

[4] = tested on: bone marrow stem cells (CFU-S); assay: Spleen colony assay, bone marrow stem cells (CFU-S); type: in vivo; conditions: treatment group, mice treated by cyclophosphamide; P < 0.01 vs control
Text: Effects of LIG on hemopoietic system were investigated. […] With increased cells in bone-marrow (BMC), endogenous colonies in spleen and higher ^3H-TdR uptake in marrow and spleen. The level of serum colony stimulating factor (CSF) increased after injection. […] Pharmacological effects as illustrated by the following table: by means of the spleen colony assay technique the action of LIG on bone marrow stem cells (CFU-S)

[5] = tested on: peritoneal macrophages; assay: Phagocytosis of peritoneal macrophage of mice; type: in vivo; conditions: LIG 5.5 mg/kg intraperitoneally daily for 5 days, cyclophosphamide 4.5 mg/kg; macrophages with phagocytized chick red blood cells per 100 macrophages; P < 0.01 vs control
Procedure: Male mice weight 18-20 g were used in the experiments and were divided into treated (LIG) and control groups. The dosage of LIG was 5.5 mg/kg injected intraperitoneally. The control mice were injected with same volume of normal saline. These injections were repeated daily for 5 days, both treated and control group were injected intraperitoneally with cyclosphosphamide. The dosage of cyclophosphamide is 4.5 mg/kg. The same experimental procedure for example 3, 4 and 5 in testing mice were used. Added 0.02 ml of 5% washed chick red blood cell suspension to 0.5 ml of the peritoneal exudates. Shook gently to mix and incubate at 37° C. for 5 minutes. Dipped two cover slips, closed to each other, in the above mixture and incubated for 30 minutes for the migration of the macrophages along the cover slips, fixed and stained with Sharma stain. Examined microscopically for: Phagocytic rate—number of macrophages with phagocytized chick red blood cells per 100 macrophages counted. Method of animal model is regular.

[6] = tested on: white blood cells; assay: White blood cells in rats treated by cyclophosphamide; type: in vivo; conditions: LIG + cyclophosphamide, 10 days treatment, P < 0.01 vs control
Text: Action of LIG and cyclophosphamide on white blood cells was investigated by means of white blood cells assay. […] Method of testing in animal is standard. The dosage of LIG and cyclophosphamide is the same as in above examples. Time of treatment is 10 days.

[7] = tested on: lymphocytes; assay: Lymphoblastoid transformation test (3H-TdR liquid scintillation); type: in vivo, mice; conditions: treatment group, P < 0.01 vs control
Procedure: By means of ^3H-TdR liquid scintillation assay technique, the action of LIG on lymphoblastoid transformation was investigated method:
(1) Experimental procedure of animal is the same as in Example 2.
(2) Lemphoblastoid transformation test:
a. Culture media—RPMI 1640, medium 199 minimal essential medium (Eagle).
b. Buffer—Hepes buffer, the final concentration at 37° C. was 25 mM, to maintain the pH of the medium at 7.31.
c. Serum—generally 15-205 fetal bovine serum was incorporated, for lymphocytes from mice, 5% was used.
d. Gaseous phase—5% CO2 in air.
e. Cell concentration—generally 1-2×10^6/ml.
f. Stimulants—20 μl/ml for phytohemagglutinin containing polysaccharide (PHA-M) or 10 μl/ml for polysaccharide-free purified phytohemagglutinin (PHA-P).
a. The conditions of cell culture are same as above. ^3H-TdR was added after 48 hours of incubation at a final concentration of 1 μCi/ml and continued the incubation for 24 hours.
b. Washed the cells twice with cold normal saline and the erythrocytes were lysed. The intact lymphocytes were again washed once with cold saline. Spun down the lymphocytes and added 2 ml of 10% trichloroacetic acid to precipitate the protein. Washed twice with normal saline. Added 2 ml of ethanol:ether (1:1) to wash once. […]
c. Added 4 ml of scintillation fluid to 0.1 ml of the final sample and counted in a liquid scintillation counter.

[8] = tested on: interleukin-2 (rIL-2); assay: Interleukin-2 (rIL-2) determination; conditions: treatment group
Text: The methods of determination rIL-2 were regular.

[9] = tested on: human blood lymphocytes; assay: Immune function of human blood lymphocytes (3H-TdR incorporation); type: cell-based; conditions: LIG added to culture medium of lymphocytes from old volunteers (60-70 years)
Procedure: Twenty (20) old volunteers (60-70 years of age) and 10 healthy young persons participated in the experiment. 2 ml of venous blood, heparinized was obtained from each of the participants. The Study of the effects of LIG was carried out by using Eagle's Minimal Essential Medium MEM). MEM was supplemented with 0.125 ml of heat-inactivated fetal calf serum, 100 units of Penicillin and 0.1 mg of streptomycin per ml of medium. Culture medium was divided into treated (LIG) and control group. LIG was added to the culture medium of treatment group. The culture medium of control group was mixed with same volume as that of LIG of normal saline on the 72 hours of culture. The ^3H-thymidine (^3H-TdR) was added into all the cultures (2 μci/ml) for last 12 hours of culture. The cells were harvested on 0.45 μm filters, washed with phosphate buffer (ph 7.4) and bleached with H2O2. The filters were then dried and the incorporation of ^3H-TdR into lymphocytes cell was measured by scintillation counter.

[10] = tested on: hemopoietic system; assay: Recovery of hemopoiesis in mice treated by cyclophosphamide; type: in vivo
Text: Effects of LIG on hemopoietic system were investigated. […] With increased cells in bone-marrow (BMC), endogenous colonies in spleen and higher ^3H-TdR uptake in marrow and spleen. The level of serum colony stimulating factor (CSF) increased after injection.

[11] = mice treated by cyclophosphamide

CCC/C=C1\OC(=O)C2=C1CCC=C2 [LIG, ligustilide]
Peroxidase activity [1]: 7.6 ± 0.8 Enzyme units/10 mg uterus | DNA synthesis [2]: 1052 ± 110 CPM/10 g uterine tissues | RNA units [3]: 0.92 ± 0.12 | Mean (CFU-S ± SD) [4]: 28.5 ± 3.5 | Phagocytic (rate ± SD) [5]: 26.8 ± 3.1 | White blood cells [6]: 13.8 ± 2.0 × 10^3/cm^3 | Lymphoblastoid transformation CPM ± SD [7]: 1650 ± 270 CPM | IL-2 [8]: 75.6 ± 8.9 U/ml | 3H-TdR incorporation into lymphocytes, CPM [9]: 2180 ± 360 CPM | Level of serum colony stimulating factor (CSF) ([10]; after injection): increased | 3H-TdR uptake in marrow and spleen [10, 11]: higher | Cells in bone-marrow (BMC) [10, 11]: increased | Recovery rate of hemopoieses [10, 11]: markedly improve
